Columns and labels:
human B cells = test: IL-10 induction in human B cells cultivated with anti-IgM plus CpG; assay type: cell-based; details: B-cell, 48 h, 2 days, IL-10 in cell culture supernatants, read-out: IL-10 mean induction fold in human B cells treated with compound compared to DMSO control
Protocol: Human B cells isolated magnetically through negative selection (B Cell Isolation Kit II, human, Miltenyi ref: 130-091-151) were cultivated for 2 consecutive days in the presence of anti-IgM plus CpG in the presence of the indicated molecule (see table 1) at 0.25 μM final concentration, or DMSO as control. IL-10 was measured in cell culture supernatants, and the IL-10 induction fold was calculated for each molecule compared to the DMSO control.
Human B cells isolated magnetically through negative selection (B Cell Isolation Kit II, human, Miltenyi ref: 130-091-151) were cultivated for 2 consecutive days in the presence of anti-IgM plus CpG in the presence of DMSO (as control) or in the presence of the tested molecule at 0.25 μM final concentration. IL-10 was measured in cell culture supernatants. NS: non stimulated B cell culture condition.

resting mouse B cells [1] = test: Il10 mRNA expression in B cells (quantitative RT-PCR); assay type: cell-based; details: 0.25 μM
Protocol: Resting mouse B cells were isolated from spleen by magnetic depletion of CD43^+ cells. B cells were incubated with DMSO-vehicle control or N6 (0.25 μM), as such, or in combination with CpG. mRNA was extracted at different time-points and il10/actin ratio was determined.
Resting mouse B cells were isolated from spleen by magnetic depletion of CD43^+ cells. B cells were incubated with DMSO vehicle control, or C3 or N6 at 0.25 μM for the indicated time, and Il10 mRNA induction was quantified by quantitative RT-PCR.

resting mouse B cells [2] = test: IL-10 expression in TLR-, CD40- and BCR-stimulated B cells by flow cytometry; assay type: cell-based; details: 0.25 μM, stimulation through TLR4, TLR7/8, TLR9, CD40, IgM, 72 hours
Protocol: Resting mouse B cells were isolated from spleen by magnetic depletion of CD43^+ cells and stimulated through TLR4, TLR7/8, TLR9, CD40, and IgM as indicated for 3 consecutive days. Cell culture medium was supplemented with DMSO-vehicle control, C3 or N6 at 0.25 μM. B cells from C57BL/6 mice were used to determine autofluorescence in eGFP channel and IL-10.eGFP-IL-6.tdTomato mice were used to monitor IL-10 expression by flow cytometry at 72 hours. The percentage of viable/singlets/CD19^+/IL-10^+ cells is shown. Data are presented as mean±SD. n≥3 independent experiments.

[3] = test system: resting mouse B cells from spleen of IL-10.eGFP mice; test: High throughput flow cytometry-based phenotypic screen for IL-10 inducers; assay type: cell-based; details: 10 μM, LPS, 72 hours
Protocol: Resting mouse B cells were isolated from spleen of IL-10.eGFP mice by magnetic depletion of CD43+ cells, and stimulated for 72 hours in 384-well plates in the presence of chemical compounds at 10 μM final. The chemical library originated from the Leibniz-Forschungsinstitut für Molekulare Pharmakologie (FMP) (Berlin, Germany). The frequency of IL-10-expressing B cells was then measured in each well by flow cytometry.

[4] = test system: mouse B cell subsets (CD19+, follicular, marginal zone, blood B cells); test: IL-10 expression, IL-10 secretion and plasma cell generation in B cell subsets, CpG-based culture; details: 0.25 μM, 3 days
Source text: Resting mouse B cells were isolated from spleen by magnetic depletion of CD43^+ cells and total CD19^+ B cells, follicular B cells (CD19^+/CD21^low/−/CD23^high/CD1d^low) and marginal zone B cells (CD19^+/CD21^high/CD23^low/−/CD1d^hi) were purified by FACS. Total CD19^+ blood B cells were directly purified by FACS after red blood cell lysis. […] Generation of B220^low/CD138^high plasma cells was also quantified by flow cytometry. Data are presented as mean±SD. n≥3 independent experiments.

COc1cccc(F)c1C(=O)Nc1ccc2[nH]c(-c3ccc(F)cc3)nc2c1 [Compound 1, 2-Fluoro-N-[2-(4-fluorophenyl)-1H-benzimidazol-6-yl]-6-methoxybenzamide]
fold induction at 0.25 µM (human B cells): 1.91

CN(C)S(=O)(=O)c1cc(C(=O)Nc2ccc3[nH]c(-c4ccc(F)cc4)nc3c2)ccc1Cl [Compound 4, 4-Chloro-3-[(dimethylamino)sulfonyl]-N-[2-(4-fluorophenyl)-1H-benzimidazol-6-yl]benzamide]
fold induction at 0.25 µM (human B cells): 1.49

O=C(Nc1ccc(-c2nc3ccc(NC(=O)c4ccc(/N=C/c5ccccc5O)cc4)c(Cl)c3[nH]2)cc1)c1ccc(/N=C/c2ccccc2O)cc1 [Compound 22, N-[4-(7-chloro-6-{[(4-{[(E)-(2-hydroxyphenyl)methylidene]amino}phenyl)carbonyl]amino}-1H-benzimidazol-2-yl)phenyl]-4-{[(E)-(2-hydroxyphenyl)methylidene]amino} benzamide]
fold induction at 0.25 µM (human B cells): 1.34

Cc1ccc(-c2nn3c4ccc(NC(=O)c5ccccc5I)cc4nc3c3ccccc23)cc1 [Compound 30, 2-lodo-N-[5-(4-methyl-phenyl)benzimidazo[2,1-a]phthalazin-10-yl]benzamide]
fold induction at 0.25 µM (human B cells): 1.37

Cc1ccc(-c2nn3c4ccc(NC(=O)c5ccccc5)cc4nc3c3ccccc23)cc1 [Compound 31, N-[5-(4-Methylphenyl)benzimidazo [2,1-a]phthalazin-10-yl]benzamide]
fold induction at 0.25 µM (human B cells): 1.72

COc1ccccc1C(=O)Nc1ccc2c(c1)nc1c3ccccc3c(-c3ccc(C)cc3)nn21 [Compound 32, 2-Methoxy-N-[5-(4-methylphenyl)benzimidazo [2,1-a]phthalazin-10-yl]benzamide]
fold induction at 0.25 µM (human B cells): 1.42

COc1ccccc1C(=O)Nc1ccc2c(c1)nc1c3ccccc3c(C)nn21 [Compound 40, 2-Methoxy-N-(5-methylbenzimidazo[2,1-a]phthalazin-10-yl)benzamide]
fold induction at 0.25 µM (human B cells): 1.72

O=C(Nc1ccc2c(c1)nc1c3ccccc3c(-c3ccc(Cl)cc3)nn21)c1ccccc1 [Compound 43, N-[5-(4-Chloro-phenyl)benzimidazo[2,1-a]phthalazin-10-yl]benzamide]
fold induction at 0.25 µM (human B cells): 1.3

CSc1ccccc1C(=O)Nc1ccc2[nH]c(-c3cccc(F)c3)nc2c1 [Compound 52, N-[2-(3-Fluorophenyl)-1H-benzimidazol-6-yl]-2-(methylthio)benzamide]
fold induction at 0.25 µM (human B cells): 1.91

O=C(Nc1ccc2[nH]c(-c3ccc(F)cc3)nc2c1)c1cc(F)cc2nccnc12 [Compound 54, 7-Fluoro-N-[2-(4-fluorophenyl)-1H-benzimidazol-6-yl]-5-quinoxalinecarboxamide]
fold induction at 0.25 µM (human B cells): 1.71

O=C(Nc1ccc2[nH]c(-c3cc(F)ccc3F)nc2c1)c1cc(F)cc2nccnc12 [Compound 56, N-[2-(2,5-Difluorophenyl)-1H-benzimidazol-6-yl]-7-fluoro-5-quinoxalinecarboxamide]
fold induction at 0.25 µM (human B cells): 1.76

O=C(Nc1ccc2[nH]c(-c3cccc(F)c3)nc2c1)c1ccc(-n2cc[nH]c2=S)cc1 [Compound 57, N-[2-(3-fluorophenyl)-1H-benzimidazol-5-yl]-4-(2-sulfanylidene-3H-imidazol-1-yl)benzamide]
fold induction at 0.25 µM (human B cells): 1.33

O=C1CCSc2ccc(C(=O)Nc3ccc4[nH]c(-c5cccc(F)c5)nc4c3)cc2N1 [Compound 58, N-[2-(3-fluorophenyl)-1H-benzimidazol-5-yl]-4-oxo-3,5-dihydro-2H-1,5-benzothiazepine-7-carboxamide]
fold induction at 0.25 µM (human B cells): 1.56

O=C(Nc1ccc2[nH]c(-c3ccccc3Cl)nc2c1)c1ccccc1N1CCOCC1 [Compound 61, N-[2-(2-Chlorophenyl)-1H-benzimidazol-6-yl]-2-(4-morpholinyl)benzamide]
fold induction at 0.25 µM (human B cells): 2.18

Nc1ccc(C(=O)Nc2ccc(-c3nc4cc(NC(=O)c5ccc(N)cc5)c(Cl)cc4[nH]3)cc2)cc1 [Compound 67, 4-Amino-N-[4-[5-[(4-aminobenzoyl)amino]-6-chloro-1H-benzimidazol-2-yl]phenyl]benzamide]
fold induction at 0.25 µM (human B cells): 1.84

O=C(Nc1ccc2[nH]c(-c3cccnc3)nc2c1)c1ccccc1 [Compound 107, N-[2-(3-Pyridinyl)-1H-benzimidazol-6-yl]benzamide]
fold induction at 0.25 µM (human B cells): 1.33

Fc1cccc(-c2nc3cc(Br)ccc3[nH]2)c1 [Compound 110, 6-Bromo-2-(3-fluorophenyl)-1H-benzimidazole]
fold induction at 0.25 µM (human B cells): 1.43

Fc1ccc(-c2nc3cc(Br)ccc3[nH]2)cc1 [Compound 111, 6-Bromo-2-(4-fluorophenyl)-1H-benzimidazole]
fold induction at 0.25 µM (human B cells): 1.56

O=C(Nc1ccc2nc(-c3ccc(F)cc3)[nH]c2c1)c1ccccc1 [Compound 116, N-[2-(4-Fluorophenyl)-1H-benzimidazol-6-yl]benzamide]
fold induction at 0.25 µM (human B cells): 1.48

O=C(Nc1ccc2nc(-c3cccc(F)c3)[nH]c2c1)c1ccccc1 [Compound 117, N-(2-(3-fluorophenyl)-1H-benzo[d]imidazol-6-yl)benzamide]
fold induction at 0.25 µM (human B cells): 1.93

O=C(Nc1ccc2nc(-c3ccccc3F)[nH]c2c1)c1ccccc1 [Compound 120, N-(2-(2-fluorophenyl)-1H-benzo[d]imidazol-6-yl)benzamide]
fold induction at 0.25 µM (human B cells): 1.68

COc1ccccc1C(=O)Nc1ccc2nc(-c3cccnc3)[nH]c2c1 [Compound 124, 2-Methoxy-N-[2-(3-pyridinyl)-1H-benzimidazol-6-yl]benzamide]
fold induction at 0.25 µM (human B cells): 3.5

Fc1ccccc1-c1nc2ccc(Br)cc2[nH]1 [Compound 136, 6-bromo-2-(2-fluorophenyl)-1H-Benzimidazole]
fold induction at 0.25 µM (human B cells): 2.88

COc1ccccc1C(=O)Nc1ccc2nc(-c3ccc(F)cc3)[nH]c2c1 [Compound 145, N-(2-(4-fluorophenyl)-1H-benzo[d]imidazol-6-yl)-2-methoxybenzamide]
fold induction at 0.25 µM (human B cells): 1.59

COc1ccccc1C(=O)Nc1ccc2nc(-c3cccc(F)c3)[nH]c2c1 [Compound 153, N-(2-(3-fluorophenyl)-1H-benzo[d]imidazol-6-yl)-2-methoxybenzamide]
fold induction at 0.25 µM (human B cells): 1.38

COc1ccccc1C(=O)Nc1ccc2nc(-c3ccccc3F)[nH]c2c1 [Compound 157, N-(2-(2-fluorophenyl)-1H-benzo[d]imidazol-6-yl)-2-methoxybenzamide]
fold induction at 0.25 µM (human B cells): 1.61

COc1ccccc1NC(=O)c1ccc2nc(-c3ccccc3)[nH]c2c1 [Compound 366, N-(2-methoxyphenyl)-2-phenyl-1H-benzo[d]imidazole-6-carboxamide]
fold induction at 0.25 µM (human B cells): 1.95

COc1ccccc1NC(=O)c1ccc2nc(-c3ccccc3F)[nH]c2c1 [Compound 371, 2-(2-fluorophenyl)-N-(2-methoxyphenyl)-1H-benzo[d]imidazole-6-carboxamide]
fold induction at 0.25 µM (human B cells): 1.84

COc1ccccc1NC(=O)c1ccc2nc(-c3cccnc3)[nH]c2c1 [Compound 375, N-(2-methoxyphenyl)-2-(pyridin-3-yl)-1H-benzo[d]imidazole-6-carboxamide]
fold induction at 0.25 µM (human B cells): 1.6

CC(=O)Nc1ccc(C(=O)Nc2ccc(-c3nc4cc(NC(=O)c5ccc(NC(C)=O)cc5)ccc4[nH]3)cc2)cc1 [Compound C3]
Il10 transcription in unstimulated B cells (resting mouse B cells [1]): Increase Il10 Transcription | IL-10 expression in B cells (percentage of IL-10+ cells) (resting mouse B cells [2]): increase IL-10 expression in B cells across a broad range of stimulation protocols | IL-10 expression in stimulated B cells [3]: markedly increases IL-10 expression | differentiation of B cells into plasma cells (B220low/CD138high) [4]: increase | amount of IL-10 produced by stimulated B cells ([4]; cell-free supernatants): increase | proportion of activated B cells expressing IL-10 ([4]; flow cytometry): increase

O=C(Nc1ccc2[nH]c(-c3ccccc3)nc2c1)c1ccccc1 [Compound N4, N-(2-Phenyl-1H-benzimidazol-6-yl)benzamide]
fold induction at 0.25 µM (human B cells): 1.61

— patent US20250388551A1, “COMPOUNDS INDUCING PRODUCTION OF PROTEINS BY IMMUNE CELLS” (UNIVERSITE PARIS CITE, priority 2022, published 2025)
